The test system of test [1] is Mycobacterium tuberculosis. Description: Antimycobacterial activity against extensively drug resistant Mycobacterium tuberculosis H37Rv. The class given is functional.
For test [2], the system named is Mycobacterium tuberculosis. Description: Antimycobacterial activity against multidrug resistant Mycobacterium tuberculosis H37Rv. The format is functional.
Test [3] has as its system Mycobacterium tuberculosis. The test is described as follows: Potentiation of ethionamide induced antibacterial activity against Mycobacterium tuberculosis W4-E1 harboring EthA Gly343Ala mutant expressing GFP incubated for 5 days by fluorescence based analysis. The class given is functional, organism-based.
Test [4] deals with Mycobacterium tuberculosis. Description: Antimycobacterial activity against isoniazid and rifampicin resistant Mycobacterium tuberculosis by broth dilution method. The format is functional. In general terms: In broth dilution the organism is exposed to a series of concentrations in liquid medium.
The subject of test [5] is Mycobacterium tuberculosis. Description: Antimycobacterial activity against rifampicin resistant Mycobacterium tuberculosis by broth dilution method. The class given is functional.
Test [6] deals with Mycobacterium tuberculosis. Description: Antimycobacterial activity against isoniazid, rifampicin, amikacin and moxifloxacin resistant Mycobacterium tuberculosis by broth dilution method. The format is functional.

Data on 38 compounds can be found in ChEMBL document CHEMBL5244273, “Tuberculosis: An Overview of the Immunogenic Response, Disease Progression, and Medicinal Chemistry Efforts in the Last Decade toward the Development of Potential Drugs for Extensively Drug-Resistant Tuberculosis Strains” (J Med Chem, 2021).

Each structure is given as a SMILES string. Values after ≈ are worked out from the molar mass of the structure shown. A value given as a limit tells only on which side of the number the result lay.

Regarding `CC(=O)N1N=C(c2ccc3oc(-c4ccc(O)cc4)nc3c2)CC1c1cccs1` (stereo not drawn), the values for the MIC in test [1] and in test [2] were 12.5 µg/mL (≈ 31 µM) and 3.12 µg/mL (≈ 7.73 µM), respectively.

With `O=C(CCC(F)(F)F)N1CCC(F)(c2ccnc(Cl)c2)CC1`, the EC50 in test [3] was below 1.3 µM.

As for `NC(=O)N1N=C(c2ccc3oc(N)nc3c2)CC1c1cccs1` (stereo not drawn), the MIC in test [1] came out at 50 µg/mL (≈ 153 µM); in test [2] it was 12.5 µg/mL (≈ 38.2 µM).

As to `Cc1cc(-c2cn(C[C@@]3(C)Cn4cc([N+](=O)[O-])nc4O3)nn2)ccc1F`, the MIC in test [4] came out at 4 µg/mL (≈ 11.2 µM); in test [5] it was 1 µg/mL (≈ 2.79 µM); in test [6] it was 2 µg/mL (≈ 5.58 µM).

As for `O=C(CCC(F)(F)F)N1CC(C2CCCCC2)C1`, the half-maximal effective concentration (EC50) in test [3] is below 0.075 µM.

Regarding `O=C(CCC(F)(F)F)N1CCC(F)(c2ccnc(F)c2)CC1`, the EC50 in test [3] was below 1.3 µM.

Turning to `Cc1ccc(OCc2cn(C[C@@]3(C)Cn4cc([N+](=O)[O-])nc4O3)nn2)cc1`, the MIC in test [4] was determined as 2 µg/mL (≈ 5.4 µM); in test [5] it was 8 µg/mL (≈ 21.6 µM); in test [6] it was 8 µg/mL (≈ 21.6 µM).

`CC(=O)N1N=C(c2ccc3oc(N)nc3c2)CC1c1cccs1` (stereo not drawn): the figures for the MIC in test [1] and in test [2] were 25 µg/mL (≈ 76.6 µM) and 6.25 µg/mL (≈ 19.1 µM), respectively.

`CC(=O)N1N=C(c2ccc3oc(NC(=O)c4ccccc4)nc3c2)CC1c1cccs1` (stereo not drawn): the minimum inhibitory concentration (MIC) in test [1] amounted to 50 µg/mL (≈ 116 µM); in test [2], 12.5 µg/mL (≈ 29 µM).

In the case of `CCc1ccc(OCc2cn(C[C@@]3(C)Cn4cc([N+](=O)[O-])nc4O3)nn2)cc1`, the MIC in test [4] was determined as 2 µg/mL (≈ 5.2 µM); in test [5], 4 µg/mL (≈ 10.4 µM); in test [6], 4 µg/mL (≈ 10.4 µM).

For the compound `O=C(CCC(F)(F)F)N1CCC(F)(c2cncc(Cl)c2)CC1`, the EC50 in test [3] is below 1.3 µM.

For the compound `C[C@]1(Cn2cc(CN3CCOCC3)nn2)Cn2cc([N+](=O)[O-])nc2O1`, the MIC in test [4], in test [5] and in test [6] was 2 µg/mL (≈ 5.72 µM) throughout.

Take `Cc1cccc(OCc2cn(C[C@@]3(C)Cn4cc([N+](=O)[O-])nc4O3)nn2)c1`: the MIC in test [4] stood at 1 µg/mL (≈ 2.7 µM); in test [5], 1 µg/mL (≈ 2.7 µM); in test [6], 2 µg/mL (≈ 5.4 µM).

As to `CC(=O)N1N=C(c2ccc3oc(NC(=O)CCl)nc3c2)CC1c1cccs1` (stereo not drawn), the MIC in test [1] is 12.5 µg/mL (≈ 31 µM); in test [2], 3.12 µg/mL (≈ 7.74 µM).

With `O=C(CCC(F)(F)F)N1CCC2(CC1)CC(Br)=NO2`, the EC50 in test [3] was below 0.14 µM.

On to `Cc1ccc(OCCc2cn(C[C@@]3(C)Cn4cc([N+](=O)[O-])nc4O3)nn2)cc1`, for which the MIC in test [4] was 0.25 µg/mL (≈ 0.65 µM); in test [5] it was 1 µg/mL (≈ 2.6 µM); in test [6], 0.25 µg/mL (≈ 0.65 µM).

As for `Cc1ccc(SCc2cn(C[C@@]3(C)Cn4cc([N+](=O)[O-])nc4O3)nn2)cc1`, the results for the MIC in test [4], in test [5] and in test [6] were 0.5 µg/mL (≈ 1.29 µM), 0.25 µg/mL (≈ 0.647 µM) and 2 µg/mL (≈ 5.18 µM), respectively.

As for `C[C@]1(Cn2cc(-c3ccc(C(F)(F)F)cc3)nn2)Cn2cc([N+](=O)[O-])nc2O1`, the minimum inhibitory concentration (MIC) in test [4] was determined as 2 µg/mL (≈ 5.07 µM); in test [5], 4 µg/mL (≈ 10.1 µM); in test [6], 2 µg/mL (≈ 5.07 µM).

Take `O=C(CCC(F)(F)F)N1CC(c2cccc(Cl)c2)C1`: the EC50 in test [3] is below 0.075 µM.

In the case of `O=C(CCC(F)(F)F)N1CCC(F)(c2cncc(C(F)(F)F)c2)CC1`, in test [3], the EC50 was below 1.3 µM.

As to `CC(=O)N1N=C(c2ccc3oc(S)nc3c2)CC1c1cccs1` (stereo not drawn), the MIC in test [1] was above 100 µg/mL; in test [2], 25 µg/mL (≈ 72.8 µM).

In the case of `C[C@]1(Cn2cc(-c3ccc(F)cc3)nn2)Cn2cc([N+](=O)[O-])nc2O1`, the MIC in test [4], in test [5] and in test [6] was 2 µg/mL (≈ 5.81 µM) each time.

As for `O=C(CCC(F)(F)F)N1CCC(F)(c2cc(C(F)(F)F)ccn2)CC1`, the EC50 in test [3] is below 1.3 µM.

In the case of `COC1=NOC2(CCN(C(=O)CCCl)CC2)C1`, in test [3], the EC50 is below 0.14 µM.

Consider `O=C(CCCl)N1CCC2(CC1)CC(C(F)(F)F)=NO2`, for which, in test [3], the EC50 is below 0.14 µM.

For `CCC1=NOC2(CCN(C(=O)CCC(F)(F)F)CC2)C1`, in test [3], the EC50 was below 0.14 µM.

`O=C(CCC(F)(F)F)N1CCC(c2ccnc(Cl)c2)CC1`: in test [3], the EC50 is below 1.3 µM.

Regarding `CCOC1=NOC2(CCN(C(=O)CCC(F)(F)F)CC2)C1`, the concentration for a half-maximal effect (EC50) in test [3] is below 0.14 µM.

As for `O=C(CCC(F)(F)F)N1CCC2(CC1)CC(OCC(F)(F)F)=NO2`, the EC50 in test [3] is below 0.14 µM.

`O=C(CCC(F)(F)F)N1CCC(c2cnc(F)c(F)c2)CC1`: the EC50 in test [3] is below 1.3 µM.

Turning to `C[C@]1(Cn2cc(COc3cccc(F)c3)nn2)Cn2cc([N+](=O)[O-])nc2O1`, the MIC in test [4], in test [5] and in test [6] was 2 µg/mL (≈ 5.34 µM) throughout.

Turning to `CCCOC1=NOC2(CCN(C(=O)CCC(F)(F)F)CC2)C1`, the EC50 in test [3] is below 0.14 µM.

On to `CCCCCCOC1=NOC2(CCN(C(=O)CCC(F)(F)F)CC2)C1`, for which the EC50 in test [3] is below 0.14 µM.

For the compound `O=C(CCC(F)(F)F)N1CCC(c2ncc(F)cc2F)CC1`, the EC50 in test [3] was below 1.3 µM.

`C[C@]1(Cn2cc(-c3ccc(F)cc3F)nn2)Cn2cc([N+](=O)[O-])nc2O1`: the minimum inhibitory concentration (MIC) in test [4] is 1 µg/mL (≈ 2.76 µM); in test [5] it was 4 µg/mL (≈ 11 µM); in test [6], 4 µg/mL (≈ 11 µM).

Turning to `O=C(CCCC(F)(F)F)N1CCC(c2cncc(Cl)c2)CC1`, the half-maximal effective concentration (EC50) in test [3] was below 1.3 µM.

For the compound `C[C@]1(Cn2cc(-c3ccc(OC(F)(F)F)cc3)nn2)Cn2cc([N+](=O)[O-])nc2O1`, the MIC is 2 µg/mL (≈ 4.87 µM) in test [4], 2 µg/mL (≈ 4.87 µM) in test [5] and 1 µg/mL (≈ 2.44 µM) in test [6].

Consider `O=C(CCC(F)(F)F)N1CCC(c2cncc(Cl)c2)C1` (stereo not drawn), for which the EC50 in test [3] was below 1.3 µM.

The MIC is the smallest concentration in the dilution series that meets the test's criterion for growth inhibition. Read a low MIC as a more susceptible organism. In general, EC50 refers to the concentration that produces a half-maximal response.
